Measurements: ChEMBL document CHEMBL2440076, “New triarylpyrazoles as broad-spectrum anticancer agents: design, synthesis, and biological evaluation” (Eur J Med Chem, 2013)

Assays:
[1] = tested on: RPMI-8226; assay: Growth inhibition of human RPMI8226 cells assessed as cell growth at 10 uM after 48 hrs by sulforhodamine B assay; assay type: functional; details: RPMI-8226, 48 h, read-out: Activity
[2] = tested on: Malme-3M; assay: Growth inhibition of human MALME-3M cells assessed as cell growth at 10 uM after 48 hrs by sulforhodamine B assay; assay type: functional; details: read-out: Activity
[3] = tested on: OVCAR-5; assay: Growth inhibition of human OVCAR5 cells assessed as cell growth at 10 uM after 48 hrs by sulforhodamine B assay; assay type: functional; details: OVCAR-5, 48 h, read-out: Activity
[4] = tested on: K562; assay: Growth inhibition of human K562 cells assessed as cell growth at 10 uM after 48 hrs by sulforhodamine B assay; assay type: functional; details: K562, 48 h, read-out: Activity
[5] = tested on: T47D; assay: Growth inhibition of human T47D cells assessed as cell growth at 10 uM after 48 hrs by sulforhodamine B assay; assay type: functional; details: read-out: Activity
[6] = tested on: HL-60(TB); assay: Growth inhibition of human HL-60(TB) cells after 48 hrs by sulforhodamine B assay; assay type: functional; details: HL-60, 48 h; for CC50: read-out: LC50 (the source's name)
[7] = tested on: CCRF-CEM; assay: Growth inhibition of human CCRF-CEM cells after 48 hrs by sulforhodamine B assay; assay type: functional
[8] = tested on: 786-0; assay: Growth inhibition of human 786-0 cells after 48 hrs by sulforhodamine B assay; assay type: functional; details: 786-0, 48 h; for CC50: read-out: LC50 (the source's name)
[9] = tested on: OVCAR-8; assay: Growth inhibition of human OVCAR8 cells assessed as cell growth at 10 uM after 48 hrs by sulforhodamine B assay; assay type: functional; details: OVCAR-8, 48 h, read-out: Activity
[10] = tested on: SW-620; assay: Growth inhibition of human SW620 cells after 48 hrs by sulforhodamine B assay; assay type: functional; details: SW-620, 48 h; for CC50: read-out: LC50 (the source's name)
[11] = tested on: OVCAR-4; assay: Growth inhibition of human OVCAR4 cells after 48 hrs by sulforhodamine B assay; assay type: functional; details: OVCAR-4, 48 h
[12] = tested on: IGROV-1; assay: Growth inhibition of human IGROV1 cells assessed as cell growth at 10 uM after 48 hrs by sulforhodamine B assay; assay type: functional; details: IGROV-1, 48 h, read-out: Activity
[13] = tested on: TK-10; assay: Growth inhibition of human TK10 cells after 48 hrs by sulforhodamine B assay; assay type: functional; details: TK-10, 48 h; for CC50: read-out: LC50 (the source's name)
[14] = tested on: UO-31; assay: Growth inhibition of human UO31 cells assessed as cell growth at 10 uM after 48 hrs by sulforhodamine B assay; assay type: functional; details: UO-31, 48 h, read-out: Activity
[15] = tested on: NCI-H522; assay: Growth inhibition of human NCI-H522 cells after 48 hrs by sulforhodamine B assay; assay type: functional; details: NCI-H522, 48 h
[16] = tested on: RXF 393; assay: Growth inhibition of human RXF393 cells assessed as cell growth at 10 uM after 48 hrs by sulforhodamine B assay; assay type: functional; details: RXF 393, 48 h, read-out: Activity
[17] = tested on: OVCAR-8; assay: Growth inhibition of human OVCAR8 cells after 48 hrs by sulforhodamine B assay; assay type: functional; details: OVCAR-8, 48 h; for CC50: read-out: LC50 (the source's name)
[18] = tested on: SK-OV-3; assay: Growth inhibition of human SKOV3 cells after 48 hrs by sulforhodamine B assay; assay type: functional; details: SK-OV-3, 48 h; for CC50: read-out: LC50 (the source's name)
[19] = tested on: CAKI-1; assay: Growth inhibition of human CAKI-1 cells after 48 hrs by sulforhodamine B assay; assay type: functional; details: CAKI-1, 48 h; for CC50: read-out: LC50 (the source's name)
[20] = tested on: UACC-257; assay: Growth inhibition of human UACC257 cells assessed as cell growth at 10 uM after 48 hrs by sulforhodamine B assay; assay type: functional; details: UACC-257, 48 h, read-out: Activity
[21] = tested on: MDA-MB-468; assay: Growth inhibition of human MDA-MB-468 cells assessed as cell growth at 10 uM after 48 hrs by sulforhodamine B assay; assay type: functional; details: MDA-MB-468, 48 h, read-out: Activity
[22] = tested on: SN12C; assay: Growth inhibition of human SN12C cells assessed as cell growth at 10 uM after 48 hrs by sulforhodamine B assay; assay type: functional; details: read-out: Activity
[23] = tested on: NCI-H460; assay: Growth inhibition of human NCI-H460 cells assessed as cell growth at 10 uM after 48 hrs by sulforhodamine B assay; assay type: functional; details: NCI-H460, 48 h, read-out: Activity
[24] = tested on: NCI-H226; assay: Growth inhibition of human NCI-H226 cells assessed as cell growth at 10 uM after 48 hrs by sulforhodamine B assay; assay type: functional; details: NCI-H226, 48 h, read-out: Activity
[25] = tested on: SK-MEL-5; assay: Growth inhibition of human SK-MEL-5 cells assessed as cell growth at 10 uM after 48 hrs by sulforhodamine B assay; assay type: functional; details: SK-MEL-5, 48 h, read-out: Activity
[26] = tested on: HOP-92; assay: Growth inhibition of human HOP92 cells after 48 hrs by sulforhodamine B assay; assay type: functional, cell-based; details: HOP-92, 48 h
[27] = tested on: UACC-62; assay: Growth inhibition of human UACC62 cells assessed as cell growth at 10 uM after 48 hrs by sulforhodamine B assay; assay type: functional; details: UACC-62, 48 h, read-out: Activity
[28] = tested on: MOLT-4; assay: Growth inhibition of human MOLT4 cells assessed as cell growth at 10 uM after 48 hrs by sulforhodamine B assay; assay type: functional; details: MOLT-4, 48 h, read-out: Activity
[29] = tested on: SF-539; assay: Growth inhibition of human SF539 cells assessed as cell growth at 10 uM after 48 hrs by sulforhodamine B assay; assay type: functional; details: SF-539, 48 h, read-out: Activity
[30] = tested on: MDA-MB-468; assay: Growth inhibition of human MDA-MB-468 cells after 48 hrs by sulforhodamine B assay; assay type: functional, cell-based; details: MDA-MB-468, 48 h; for CC50: read-out: LC50 (the source's name)
[31] = tested on: SK-MEL-5; assay: Growth inhibition of human SK-MEL-5 cells after 48 hrs by sulforhodamine B assay; assay type: functional; details: SK-MEL-5, 48 h
[32] = tested on: OVCAR-3; assay: Growth inhibition of human OVCAR3 cells after 48 hrs by sulforhodamine B assay; assay type: functional, cell-based; details: OVCAR-3, 48 h; for CC50: read-out: LC50 (the source's name)
[33] = tested on: RPMI-8226; assay: Growth inhibition of human RPMI8226 cells after 48 hrs by sulforhodamine B assay; assay type: functional, cell-based; details: RPMI-8226, 48 h; for CC50: read-out: LC50 (the source's name)

O=C(Nc1cccc(-n2cc(-c3ccncc3)c(-c3ccc(Cl)c(O)c3)n2)c1)Nc1cccc(C(F)(F)F)c1
growth at 10 µM [1]: 1.63%
growth at 10 µM [2]: 1.16%
growth at 10 µM [3]: 62.4%
growth at 10 µM [4]: 13.4%
growth at 10 µM [5]: 18.5%
GI50 [6]: 1.45 µM
TGI [6]: > 32.5 µM
CC50 [6]: > 32.5 µM
GI50 [7]: 1.4 µM
LC50 [7]: > 32.5 µM
TGI [7]: > 32.5 µM
GI50 [8]: 4.69 µM
TGI [8]: > 32.5 µM
CC50 [8]: > 32.5 µM
growth at 10 µM [9]: 10.6%
GI50 [10]: 3.83 µM
TGI [10]: > 32.5 µM
CC50 [10]: > 32.5 µM
GI50 [11]: 3.18 µM
LC50 (concentration killing 50% of cells) [11]: > 32.5 µM
TGI [11]: > 32.5 µM
growth at 10 µM [12]: 28.6%
GI50 [13]: 2.12 µM
TGI [13]: > 32.5 µM
CC50 [13]: > 32.5 µM
growth at 10 µM [14]: 24.8%
GI50 [15]: 1.46 µM
LC50 (concentration killing 50% of cells) [15]: > 32.5 µM
TGI [15]: 14.5 µM
growth at 10 µM [16]: 31.3%
GI50 [17]: 1.57 µM
TGI [17]: > 32.5 µM
CC50 [17]: > 32.5 µM
GI50 [18]: 4.97 µM
TGI [18]: > 32.5 µM
CC50 [18]: > 32.5 µM
GI50 [19]: 1.75 µM
TGI [19]: > 32.5 µM
CC50 [19]: > 32.5 µM
growth at 10 µM [20]: -11.6%
growth at 10 µM [21]: 10.5%
growth at 10 µM [22]: 14.6%
growth at 10 µM [23]: 7.29%
growth at 10 µM [24]: 35.1%
growth at 10 µM [25]: -25.5%
GI50 [26]: 0.509 µM
IC50 [26]: 0.51 µM
LC50 [26]: > 32.5 µM
TGI [26]: 2.23 µM
growth at 10 µM [27]: 10.4%
growth at 10 µM [28]: 12.5%
growth at 10 µM [29]: 38.5%
GI50 [30]: 0.98 µM
IC50 [30]: 0.98 µM
TGI [30]: 7.83 µM
CC50 [30]: > 32.5 µM
GI50 [31]: 1.3 µM
LC50 (concentration killing 50% of cells) [31]: 13.8 µM
TGI [31]: 4.71 µM
GI50 [32]: 1.06 µM
IC50 [32]: 1.06 µM
TGI [32]: 6.13 µM
CC50 [32]: > 32.5 µM
GI50 [33]: 1.34 µM
IC50 [33]: 1.34 µM
TGI [33]: > 32.5 µM
CC50 [33]: > 32.5 µM

O=C(Nc1cccc(-n2cc(-c3ccncc3)c(-c3ccc(Cl)c(O)c3)n2)c1)Nc1ccc(Cl)c(C(F)(F)F)c1
growth at 10 µM [1]: -10.5%
growth at 10 µM [2]: -16.6%
growth at 10 µM [3]: 23.3%
growth at 10 µM [4]: -20.8%
growth at 10 µM [5]: -7.12%
GI50 [6]: 1.5 µM
TGI [6]: > 32.5 µM
CC50 [6]: > 32.5 µM
GI50 [7]: 0.719 µM
LC50 [7]: > 32.5 µM
TGI [7]: 2.7 µM
GI50 [8]: 1.28 µM
TGI [8]: > 32.5 µM
CC50 [8]: > 32.5 µM
growth at 10 µM [9]: -41.8%
GI50 [10]: 1.15 µM
TGI [10]: 4.16 µM
CC50 [10]: > 32.5 µM
GI50 [11]: 1.2 µM
LC50 (concentration killing 50% of cells) [11]: > 32.5 µM
TGI [11]: > 32.5 µM
growth at 10 µM [12]: 10.4%
GI50 [13]: 1.5 µM
TGI [13]: 11.9 µM
CC50 [13]: > 32.5 µM
growth at 10 µM [14]: -6.09%
GI50 [15]: 0.72 µM
LC50 (concentration killing 50% of cells) [15]: 24.5 µM
TGI [15]: 2.5 µM
growth at 10 µM [16]: -76%
GI50 [17]: 0.759 µM
TGI [17]: 2.28 µM
CC50 [17]: > 32.5 µM
GI50 [18]: 1.34 µM
TGI [18]: 14.9 µM
CC50 [18]: > 32.5 µM
GI50 [19]: 0.795 µM
TGI [19]: 2.63 µM
CC50 [19]: > 32.5 µM
growth at 10 µM [20]: -54%
growth at 10 µM [21]: -49.5%
growth at 10 µM [22]: 7.46%
growth at 10 µM [23]: -43.7%
growth at 10 µM [24]: 3.43%
growth at 10 µM [25]: -100%
GI50 [26]: 0.376 µM
IC50 [26]: 0.38 µM
LC50 [26]: 13.5 µM
TGI [26]: 1.46 µM
growth at 10 µM [27]: -55.1%
growth at 10 µM [28]: -22.1%
growth at 10 µM [29]: -26.1%
GI50 [30]: 0.541 µM
IC50 [30]: 0.54 µM
TGI [30]: 1.75 µM
CC50 [30]: > 32.5 µM
GI50 [31]: 0.55 µM
LC50 (concentration killing 50% of cells) [31]: 2.13 µM
TGI [31]: 1.08 µM
GI50 [32]: 0.83 µM
IC50 [32]: 0.83 µM
TGI [32]: 2.09 µM
CC50 [32]: > 32.5 µM
GI50 [33]: 0.58 µM
IC50 [33]: 0.58 µM
TGI [33]: 2 µM
CC50 [33]: > 32.5 µM
